From the NIST ThermoML archive (doi:10.1021/je500594z)

How the values were obtained:
[1] = xn = mol fraction of the nth substance listed; settings: 101 kPa, Liquid, x2 = 0; for viscosity: Falling or rolling sphere viscometry; for speed of sound: Sing-around technique in a fixed-path interferometer; for mass density: Vibrating tube method
[2] = 101 kPa, Liquid; for viscosity: Falling or rolling sphere viscometry; for speed of sound: Sing-around technique in a fixed-path interferometer; for mass density: Vibrating tube method

CCO [ethanol] + CCCC[n+]1ccn(C)c1.O=S(=O)([N-]S(=O)(=O)C(F)(F)F)C(F)(F)F
[1]
Settings | mass density [kg/m3] | speed of sound [m/s] | viscosity [mPa·s]
278.15 K | 802.39 | 1212.9 | 1.59
298.15 K | 785.32 | 1143.1 | 1.08
318.15 K | 767.84 | 1075.7 | 0.77
338.15 K | 749.54 | 1009.4 | 0.56

CCO [ethanol] + CCCCCC[n+]1ccn(C)c1.O=S(=O)([N-]S(=O)(=O)C(F)(F)F)C(F)(F)F
[1]
Settings | mass density [kg/m3] | speed of sound [m/s] | viscosity [mPa·s]
278.15 K | 802.39 | 1212.9 | 1.59
298.15 K | 785.32 | 1143.1 | 1.08
318.15 K | 767.84 | 1075.7 | 0.77
338.15 K | 749.54 | 1009.4 | –

CCn1cc[n+](C)c1.O=S(=O)([N-]S(=O)(=O)C(F)(F)F)C(F)(F)F
[2]
Settings | mass density [kg/m3] | speed of sound [m/s] | viscosity [mPa·s]
278.15 K | 1538.23 | 1284.9 | 75.08
298.15 K | 1517.76 | 1240.1 | 32.02
318.15 K | 1497.65 | 1196.6 | 17.32
338.15 K | 1477.86 | 1155.8 | 10.82

CCCC[n+]1ccn(C)c1.O=S(=O)([N-]S(=O)(=O)C(F)(F)F)C(F)(F)F
[2]
Settings | mass density [kg/m3] | speed of sound [m/s] | viscosity [mPa·s]
278.15 K | 1453.69 | 1273.8 | 139.82
298.15 K | 1434.23 | 1227.5 | 51.22
318.15 K | 1415.13 | 1184 | 24.36
338.15 K | 1396.35 | 1142.7 | 13.94

CCO [ethanol] + CCn1cc[n+](C)c1.O=S(=O)([N-]S(=O)(=O)C(F)(F)F)C(F)(F)F
[1]
Settings | mass density [kg/m3] | speed of sound [m/s] | viscosity [mPa·s]
278.15 K | 802.39 | 1212.9 | 1.59
298.15 K | 785.32 | 1143.1 | 1.08
318.15 K | 767.84 | 1075.7 | 0.77
338.15 K | 749.54 | 1009.4 | 0.56

CCO [ethanol]
[2]
Settings | mass density [kg/m3] | speed of sound [m/s] | viscosity [mPa·s]
278.15 K | 802.39 | 1212.9 | 1.59
298.15 K | 785.32 | 1143.1 | 1.08
318.15 K | 767.84 | 1075.7 | 0.77
338.15 K | 749.54 | 1009.4 | 0.56

CCCCCC[n+]1ccn(C)c1.O=S(=O)([N-]S(=O)(=O)C(F)(F)F)C(F)(F)F
[2]
Settings | mass density [kg/m3] | speed of sound [m/s] | viscosity [mPa·s]
278.15 K | 1390.3 | 1274.6 | 211.31
298.15 K | 1371.64 | 1226.8 | 70.46
318.15 K | 1353.31 | 1182 | 30.22
338.15 K | 1335.25 | 1139.3 | –
